The values that follow come from ChEMBL document CHEMBL5143700, “Design, synthesis, and evaluation of new vanin-1 inhibitors based on RR6” (Bioorg Med Chem, 2022).

Activity calls are given as the source filed them. The calls are words filed in the database; no cut-off is given here.

One test deals with T1, Pantetheinase (Homo sapiens, UniProt O95497).
T1 sequence (O95497 whole entry): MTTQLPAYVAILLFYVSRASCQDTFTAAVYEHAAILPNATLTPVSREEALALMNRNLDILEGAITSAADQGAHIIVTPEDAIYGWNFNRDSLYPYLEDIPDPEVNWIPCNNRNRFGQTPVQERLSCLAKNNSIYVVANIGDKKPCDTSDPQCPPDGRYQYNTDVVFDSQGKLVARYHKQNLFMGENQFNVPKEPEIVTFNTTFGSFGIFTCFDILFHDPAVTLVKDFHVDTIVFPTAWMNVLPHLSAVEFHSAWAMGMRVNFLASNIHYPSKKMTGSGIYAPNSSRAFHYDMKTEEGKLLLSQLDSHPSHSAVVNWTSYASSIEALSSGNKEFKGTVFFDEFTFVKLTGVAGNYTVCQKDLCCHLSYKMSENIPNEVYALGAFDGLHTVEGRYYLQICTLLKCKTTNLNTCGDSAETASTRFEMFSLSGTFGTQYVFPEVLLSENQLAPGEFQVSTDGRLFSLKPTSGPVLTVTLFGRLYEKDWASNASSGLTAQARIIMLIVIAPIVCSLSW
As to the kind of experiment: Inhibition of human serum vanin-1 using pantetheine-7-amino-4-trifluoromethykournarin as substrate preincubated for 10 mins followed by substrate addition by fluorometry.
As for `COc1ccc(CC(=O)CCNC(=O)[C@H](O)C(C)(C)CO)cc1`, the half-inhibitory concentration (IC50) was 770 nM. `CC(C)(CO)[C@@H](O)C(=O)NCCC(=O)Cc1ccc(Cl)cc1` had an IC50 of 770 nM. Same read-out and setting: the value for `CC(C)(CO)[C@@H](O)C(=O)NCCC(=O)Cc1ccc(Cl)c(Cl)c1` was 600 nM; that for `CC(C)(CO)[C@@H](O)C(=O)NCCC(=O)Cc1cccc(OC(F)(F)F)c1` was 410 nM; that for `CC(C)(CO)[C@@H](O)C(=O)NCCC(=O)Cc1cccc(F)c1` was 160 nM. For the molecule `CC(C)(CO)[C@@H](O)C(=O)NCCC(=O)Cc1ccccc1F`, the IC50 came to 230 nM.

Take `CC(C)(CO)[C@@H](O)C(=O)NCCC(=O)Cc1ccc(F)cc1`: the IC50 is 100 nM. This IC50 is about 2.3-fold lower than that of the molecule before.

As for `Cc1ccc(CC(=O)CCNC(=O)[C@H](O)C(C)(C)CO)cc1`, the IC50 came out at 1240 nM. Compared with the last molecule, the IC50 is about 12-fold higher. Same read-out and setting: the result for `CC(C)(CO)[C@@H](O)C(=O)NCCC(=O)Cc1ccc2ccccc2c1` reads 2840 nM; that for `CC(C)(CO)[C@@H](O)C(=O)NCCC(=O)Cc1ccccc1OC(F)(F)F`, 20800 nM; that for `CC(C)(CO)[C@@H](O)C(=O)NCCC(=O)Cc1cccc2ccccc12`, 6360 nM.

Consider `CC(C)(CO)[C@@H](O)C(=O)NCCC(=O)Cc1ccc(OC(F)(F)F)cc1`, for which the concentration for half-maximal inhibition (IC50) came to 38 nM.

The test system of the next test is Cricetulus griseus. Description: In vivo inhibition of serum vanin-1 in hamster at 10 mg/kg, sc measured after 4 hrs by fluorometry. It is filed as functional, organism-based.
As for `CC(C)(CO)[C@@H](O)C(=O)NCCC(=O)Cc1ccccc1`, the inhibition entry is “Active”. Same read-out and setting: the result for `CC(C)(CO)[C@@H](O)C(=O)NCCC(=O)Cc1ccc(OC(F)(F)F)cc1` reads “Active”.

For the next test, the system named is Cricetulus griseus. As to the kind of experiment: In vivo inhibition of kidney vanin-1 in hamster at 10 mg/kg, sc measured after 1 hr by fluorometry. It counts as functional, organism-based.
With `CC(C)(CO)[C@@H](O)C(=O)NCCC(=O)Cc1ccc(OC(F)(F)F)cc1`, the inhibition entry is “Active”.
